In patent US12030929B2, “Fusobacterium nucleatum amyloid-like FadA for diagnosis and treatment of Fn-mediated pathogenesis” (The Trustees of Columbia University in the City of New York, priority 2021, dated 2024):

Experiments:
Fn 12230 = assay: Biofilm assay: Fn biofilm formation on detergent-resistant Fn pellets; assay type: cell-based, Fusobacterium nucleatum; conditions: 0, 10 or 50 μg/ml Congo Red; 48 or 72 hours; crystal violet OD550
Experimental: FIG. 4A-4F. Functional analysis of amyloid-like FadA in vitro. 4A. Facilitation of Fn biofilm formation by amyloid-like FadA. An aliquot of 10 μg each of the detergent-resistant pellets prepared from of Fn 12230 (wild type), US1 (ΔfadA) and lam, or PBS, was added to the 96-well plates and incubated at 37° C. for 5 hours. Fresh culture of Fn 12230 was diluted to OD600 of 0.2 and an aliquot of 200 μl was added to the wells, followed by incubation at 37° C. for 48 or 72 hours under anaerobic conditions. Following washes, the biofilms were incubated with 100 μl 0.1% crystal violet for 15 min. After washing, 100 μl 95% ethanol was added to each well and the optical density at OD550 was measured in a microplate reader. The results shown are the average of four experiments each performed in duplicate. A representative image following 72 hours of incubation is shown in the top panel. **p<0.01. ***p<0.001 (t-test). 4B. Inhibition of biofilm formation mediated by detergent-resistant Fn pellets by Congo Red. An aliquot of 10 μg detergent-resistant pellets prepared from Fn 12230 (pellet) was added in 96-well plates in the presence of 0, 10 or 50 μg/ml Congo Red (CR), followed by addition of Fn 12230 and incubated as described above. The results shown are the average of four experiments each performed in duplicate. […]

[1] = system: Fn binding to human CRC cells DLD1; assay: Cell culture attachment assay, DLD1; assay type: cell-based; conditions: bacteria washed twice with 1 mg/ml Congo Red, MOI 50:1

Nc1c(/N=N/c2ccc(-c3ccc(/N=N/c4cc(S(=O)(=O)O)c5ccccc5c4N)cc3)cc2)cc(S(=O)(=O)O)c2ccccc12 [Congo Red]
biofilm formation mediated by detergent-resistant Fn pellets (Fn 12230): inhibited biofilm formation in a dose-dependent manner
effect on Fn binding to DLD1 ([1]; log phase): little or no effect on binding
reduction of Fn binding to DLD1 ([1]; stationary phase): ~5 fold
